Results as given in ChEMBL document CHEMBL1127161, “Synthesis of a peptidyl 2,2-difluoro-4-phenylbutyl ketone and its evaluation as an inhibitor of interleukin-1 converting enzyme” (Bioorg Med Chem Lett, 1993).
pKi: −log10 of the molar value.

Target: T1, Caspase-1 (Homo sapiens, UniProt P29466)
T1 sequence (P29466 whole entry): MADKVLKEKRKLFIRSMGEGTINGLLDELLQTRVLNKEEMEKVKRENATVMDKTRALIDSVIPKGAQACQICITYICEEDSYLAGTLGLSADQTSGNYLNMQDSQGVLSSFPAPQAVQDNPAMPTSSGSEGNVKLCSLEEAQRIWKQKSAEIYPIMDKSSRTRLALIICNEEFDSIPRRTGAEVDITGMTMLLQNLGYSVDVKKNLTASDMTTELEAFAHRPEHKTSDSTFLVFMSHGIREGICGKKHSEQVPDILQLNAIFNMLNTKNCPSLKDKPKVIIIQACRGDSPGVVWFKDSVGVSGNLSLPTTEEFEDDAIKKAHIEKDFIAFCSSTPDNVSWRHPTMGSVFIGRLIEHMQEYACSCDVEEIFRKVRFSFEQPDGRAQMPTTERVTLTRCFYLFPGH
Assay: The compound was tested for its inhibitory activity against IL-1 beta converting enzyme

## CC(C)[C@H](NC(=O)CCc1ccccc1)C(=O)N[C@@H](C)C(=O)NC(CC(=O)O)C(=O)C(F)(F)CCCc1ccccc1 (some centres not stated)
  pKi: 5.22

## CC(C)[C@H](NC(=O)CCCCc1ccccc1)C(=O)N[C@@H](C)C(=O)NC(CC(=O)O)C(=O)C(F)(F)CCCc1ccccc1 (some centres not stated)
  pKi: 4.38
